Data from ChEMBL document CHEMBL5380834, “Design, Synthesis, and Biological Evaluation of Androgen Receptor (AR) Antagonist-Heat Shock Protein 90 (Hsp90) Inhibitor Conjugates for Targeted Therapy of Castration-Resistant Prostate Cancer” (J Med Chem, 2023).
Calls of active or inactive are those of the source. The rule behind the calls is not given here.

How the values were obtained:
[1] = Toxicity in BALB/c nude mouse xenografted with human LNCaP cells assessed as animal weight loss at 5 mg/kg, ip administered once every 4th day for 3 weeks; format: organism-based; conditions: in vivo, 504 h
[2] = Biodistribution in BALB/c mouse prostate gland xenografted with human 22Rv1 cells at 2.5 mg/kg, iv measured at 0.5 to 1 hrs; format: ADME, organism-based, CWR22R; conditions: in vivo, time 0.5-1 hrs
LNCaP [3] = experiment: Antitumor activity against human LNCaP cells xenografted in BALB/c nude mouse assessed as downregulation of FKBP5 level at 5 mg/kg, ip administered once every 4th day for 3 weeks and measured at 2 hrs post dose; format: functional, organism-based
CWR22R = experiment: Antitumor activity against human 22Rv1 cells xenografted in BALB/c nude mouse assessed as tumor growth inhibition at 2.5 mg/kg, ip administered once every 4th day for 3 weeks; format: functional; conditions: 22Rv1, 504 h, read-out: TGI
[4] = Biodistribution in BALB/c mouse heart xenografted with human 22Rv1 cells at 2.5 mg/kg, iv measured at 0.5 to 1 hrs; format: ADME, organism-based, CWR22R; conditions: in vivo, time 0.5-1 hrs
[5] = Biodistribution in BALB/c mouse testis xenografted with human 22Rv1 cells at 2.5 mg/kg, iv measured at 0.5 to 1 hrs; format: ADME, organism-based, CWR22R; conditions: in vivo, time 0.5-1 hrs
[6] = target: T1, Androgen receptor (Homo sapiens) (UniProt P10275); experiment: Induction of full length AR degradation in human RWPE-1 cells at 10 uM measured for 24 hrs by Western blot analysis; format: cell-based
T1 sequence (whole entry): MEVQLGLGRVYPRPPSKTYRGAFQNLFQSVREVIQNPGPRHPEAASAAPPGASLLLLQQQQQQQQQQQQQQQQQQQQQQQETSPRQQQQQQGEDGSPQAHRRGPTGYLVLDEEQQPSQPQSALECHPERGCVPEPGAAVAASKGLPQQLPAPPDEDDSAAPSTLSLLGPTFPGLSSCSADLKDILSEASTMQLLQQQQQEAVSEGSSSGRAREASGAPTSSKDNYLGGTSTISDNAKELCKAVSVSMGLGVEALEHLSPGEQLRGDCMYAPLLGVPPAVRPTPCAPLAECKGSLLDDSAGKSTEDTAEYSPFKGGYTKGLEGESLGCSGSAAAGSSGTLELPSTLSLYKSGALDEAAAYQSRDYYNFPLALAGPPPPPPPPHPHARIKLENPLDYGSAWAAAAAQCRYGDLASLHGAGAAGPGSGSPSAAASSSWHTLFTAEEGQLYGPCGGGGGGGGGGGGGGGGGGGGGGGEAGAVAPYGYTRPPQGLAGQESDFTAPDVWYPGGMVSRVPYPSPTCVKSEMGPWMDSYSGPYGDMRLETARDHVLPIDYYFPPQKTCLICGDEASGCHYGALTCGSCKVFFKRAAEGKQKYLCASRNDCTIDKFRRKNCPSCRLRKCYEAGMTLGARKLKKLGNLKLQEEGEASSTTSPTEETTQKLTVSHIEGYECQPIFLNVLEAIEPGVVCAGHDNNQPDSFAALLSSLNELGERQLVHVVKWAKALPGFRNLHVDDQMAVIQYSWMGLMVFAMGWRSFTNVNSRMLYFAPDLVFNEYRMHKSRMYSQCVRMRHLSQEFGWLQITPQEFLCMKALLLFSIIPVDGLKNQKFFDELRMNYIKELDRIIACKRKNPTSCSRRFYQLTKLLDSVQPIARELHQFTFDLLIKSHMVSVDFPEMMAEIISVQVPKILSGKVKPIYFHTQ

[7] = Toxicity in BALB/c nude mouse xenografted with human LNCaP cells assessed as animal weight loss at 2.5 mg/kg, ip administered once every 4th day for 3 weeks; format: organism-based; conditions: in vivo, 504 h
[8] = Toxicity in ICR mouse assessed as spleen damage at 30 to 50 mg/kg, iv administered every second day for 14 days; format: organism-based; conditions: in vivo, 336 h, dose 30-50 mg/kg, time 14 day
[9] = target: T1, Androgen receptor (Homo sapiens); experiment: Induction of full length AR degradation in human LNCaP cells assessed as maximum degradation at 100 nM measured after 12 hrs relative to control; format: cell-based
LNCaP [10] = experiment: Antitumor activity against human LNCaP cells xenografted in BALB/c nude mouse assessed as inhibition of tumor growth at 2.5 to 5 mg/kg, po administered once every 4th day for 3 weeks; format: functional, organism-based; conditions: dose 2.5-5 mg/kg
[11] = Toxicity in ICR mouse assessed as testis damage at 30 to 50 mg/kg, iv administered every second day for 14 days; format: organism-based; conditions: in vivo, 336 h, dose 30-50 mg/kg, time 14 day
[12] = Downregulation of AR-regulated FKBP5 protein level in human LNCaP cells at 300 nM measured for 48 hrs in presence of AR agonist, R1881 in charcoal stripped serum by Western blot analysis relative to control; format: functional

SMILES: CC(C)c1cc(-c2n[nH]c(=O)n2-c2ccc(CN3CCN(CC4CCN(c5ccc(C(=O)N[C@H]6CC[C@H](Oc7ccc(C#N)c(Cl)c7)CC6)nn5)CC4)CC3)cc2)c(O)cc1O
- Activity [1]: 10%
- Drug uptake [2]: Active
- Activity (LNCaP [3]): Active
- inhibition in vivo at 2.5 mg/kg (CWR22R): 50%
- Drug uptake [4]: Active
- Drug uptake [5]: Active
- Activity [6]: inactive
- Activity [7]: 10%
- Activity [8]: Non-Toxic
- Activity [9]: > 90%
- Activity (LNCaP [10]): Active
- Activity [11]: Non-Toxic
- Activity [12]: >50%
